Results: patent publication US8168648B2, “Camptothecin derivatives and uses thereof” (Taiwan Liposome Co., Ltd., priority 2009, dated 2012)

Tests used:
Format in all cases: cell-based
HCT-116 = assay: In vitro cytotoxicity assay (SRB), HCT-116; conditions: HCT-116 (Human colon cancer), 72 hours of incubation
HT-29 = assay: In vitro cytotoxicity assay (SRB), HT-29; conditions: HT-29 (Human colon cancer), 72 hours of incubation
MCF-7 = assay: In vitro cytotoxicity assay (SRB), MCF-7; conditions: MCF7, MCF-7 (Human breast cancer), 72 hours of incubation
DMS-114 = assay: In vitro cytotoxicity assay (SRB), DMS-114; conditions: Homo sapiens, DMS-114 (Small cell lung cancer), 72 hours of incubation
PC14PE6/AS2 = assay: In vitro cytotoxicity assay (SRB), PC14PE6/AS2; conditions: PC14PE6/AS2 (Non-small cell lung cancer), 72 hours of incubation

Row | SMILES | IC50 (HCT-116) | IC50 (HT-29) | IC50 (MCF-7) | IC50 (DMS-114) | IC50 (PC14PE6/AS2)
1 | CC[C@@]1(OC(=O)[C@@H](C)O)C(=O)OCc2c1cc1n(c2=O)Cc2cc3c(CN(C)C)c(O)ccc3nc2-1 [S,R-topotecan lactate (U1), S,R-topotecan lactate] | 58 nM | 56 nM | 194 nM | 53 nM | 21 nM
2 | CC[C@@]1(OC(=O)[C@H](C)O)C(=O)OCc2c1cc1n(c2=O)Cc2cc3c(CN(C)C)c(O)ccc3nc2-1 [S,S-topotecan lactate (U2), S,S-topotecan lactate] | 45 nM | 56 nM | 143 nM | 26 nM | 74 nM
